Experimental data published in ChEMBL document CHEMBL5608232, “Novel Glucagon-like Peptide 1 Receptor Agonists for Treating Type II Diabetes” (ACS Med Chem Lett, 2024).

target: Glucagon-like peptide 1 receptor (Homo sapiens, UniProt P43220); assay: Agonist activity at human GLP-1R expressed in HEK293 cells assessed as increase in intracellular cAMP level incubated for 30 mins by HTRF assay; type: functional, cell-based
Sequence (P43220 whole entry): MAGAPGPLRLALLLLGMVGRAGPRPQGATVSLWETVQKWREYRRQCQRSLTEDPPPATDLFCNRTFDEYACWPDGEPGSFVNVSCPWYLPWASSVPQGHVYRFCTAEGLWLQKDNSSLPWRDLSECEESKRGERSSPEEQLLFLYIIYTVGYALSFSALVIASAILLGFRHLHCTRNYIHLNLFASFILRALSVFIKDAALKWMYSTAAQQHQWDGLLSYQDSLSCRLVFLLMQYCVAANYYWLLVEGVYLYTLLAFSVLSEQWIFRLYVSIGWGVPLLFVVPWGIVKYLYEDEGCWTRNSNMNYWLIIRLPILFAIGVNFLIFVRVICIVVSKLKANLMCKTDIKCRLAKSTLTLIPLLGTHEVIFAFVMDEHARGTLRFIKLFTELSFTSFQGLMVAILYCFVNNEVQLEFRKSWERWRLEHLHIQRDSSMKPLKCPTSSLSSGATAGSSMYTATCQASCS

| EC50 | Structure (SMILES) |
| --- | --- |
| 0.3 nM | COc1cc(C(=O)O)cc2c1nc(Cc1cc(F)c(-c3cccc(OCc4ccc(C#N)cc4C)n3)cc1F)n2C[C@@H]1CCO1 |
| 0.297 nM | COCCOc1cc(C(=O)O)cc2c1nc(Cc1cc(F)c(-c3cccc(OCc4ccc(C#N)cc4F)n3)cc1F)n2C[C@@H]1CCO1 |
| 0.291 nM | COc1cc(C(=O)O)cc2c1nc(Cc1cc(C)c(-c3cccc(OCc4ccc(C#N)cc4F)n3)cc1F)n2C[C@@H]1CCO1 |
| 0.221 nM | COc1cc(C(=O)O)cc2c1nc(Cc1cc(F)c(-c3cccc(OCc4ccc(C#N)cc4F)n3)cc1F)n2C[C@@H]1CCO1 |
| 0.167 nM | COc1cc(C#N)ccc1COc1cccc(-c2cc(F)c(Cc3nc4c(OC)cc(C(=O)O)cc4n3C[C@@H]3CCO3)cc2F)n1 |
| 0.402 nM | COc1cc(C(=O)O)cc2c1nc(Cc1cc(F)c(-c3cccc(OCc4ccc(-n5cncn5)cc4)n3)cc1F)n2C[C@@H]1CCO1 |
